According to ChEMBL document CHEMBL1201862, “PubChem BioAssay data set” (2004):
Active and inactive are the calls of the source.

How the values were obtained:
[1] = target: Ras and Rab interactor 1/Tyrosine-protein kinase ABL1 (Homo sapiens, UniProt P00519+Q13671); assay type: functional;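 also: biochemical TR-FRET dose-response test measuring inhibition of binding between Rin1 and Abl proteins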
[2] = target: T1, Mitochondrial peptide methionine sulfoxide reductase (Bos taurus, UniProt P54149); test: Absorbance-based biochemical high throughput dose response assay for activators of Methionine sulfoxide reductase A (MsrA).; assay type: functional
T1 sequence (P54149 whole entry): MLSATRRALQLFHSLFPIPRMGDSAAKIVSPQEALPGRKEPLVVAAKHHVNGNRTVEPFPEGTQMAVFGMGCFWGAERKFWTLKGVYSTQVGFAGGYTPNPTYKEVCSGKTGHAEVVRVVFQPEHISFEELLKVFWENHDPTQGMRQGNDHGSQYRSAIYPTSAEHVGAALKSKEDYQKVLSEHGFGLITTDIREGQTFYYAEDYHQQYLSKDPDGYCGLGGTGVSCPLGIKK

[3] = target: Large T antigen (Simian virus 40, UniProt P03070); assay type: functional, Betapolyomavirus macacae;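 also: Confirmatory-stage PubChem screen for compounds that inhibit SV40 T antigen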
[4] = target: T2, Orexin receptor type 2 (Homo sapiens, UniProt O43614); test: Counterscreen assay for antagonists of the orexin 1 receptor (OX1R; HCRTR1): Fluorescence-based cell-based dose response assay for antagonists of the orexin 2 receptor (OX2R; HCRTR2), run by assay provider.; assay type: functional
T2 sequence (O43614 whole entry): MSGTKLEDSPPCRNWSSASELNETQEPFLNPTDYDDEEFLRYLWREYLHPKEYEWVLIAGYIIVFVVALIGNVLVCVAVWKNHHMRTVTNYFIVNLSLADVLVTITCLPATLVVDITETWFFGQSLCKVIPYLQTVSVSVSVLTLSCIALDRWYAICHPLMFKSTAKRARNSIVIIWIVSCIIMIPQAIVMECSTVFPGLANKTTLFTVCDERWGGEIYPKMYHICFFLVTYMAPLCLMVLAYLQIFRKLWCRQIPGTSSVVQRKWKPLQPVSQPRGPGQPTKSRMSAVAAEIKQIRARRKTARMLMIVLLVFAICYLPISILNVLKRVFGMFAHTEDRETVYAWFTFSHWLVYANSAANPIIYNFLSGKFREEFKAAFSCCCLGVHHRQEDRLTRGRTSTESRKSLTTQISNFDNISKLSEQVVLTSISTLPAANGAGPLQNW

[5] = target: T2, Orexin receptor type 2; test: Counterscreen assay for antagonists of the orexin 1 receptor (OX1R; HCRTR1): Homogeneous Time Resolved Fluorescence (HTRF)-based cell-based dose response assay for antagonists of the orexin 2 receptor (OX2R; HCRTR2), run by assay provider.; assay type: functional
[6] = target: T3, Orexin/Hypocretin receptor type 1 (Homo sapiens, UniProt O43613); test: Homogeneous Time Resolved Fluorescence (HTRF)-based cell-based high throughput dose response assay for antagonists of the orexin 1 receptor (OX1R; HCRTR1). [Related pubchem assays (depositor defined):AID434989, AID435008, AID463079, AID485270, AID492963, AID492964, AID492965, AID493232, AID504717, AID504718]; assay type: functional
T3 sequence (O43613 whole entry): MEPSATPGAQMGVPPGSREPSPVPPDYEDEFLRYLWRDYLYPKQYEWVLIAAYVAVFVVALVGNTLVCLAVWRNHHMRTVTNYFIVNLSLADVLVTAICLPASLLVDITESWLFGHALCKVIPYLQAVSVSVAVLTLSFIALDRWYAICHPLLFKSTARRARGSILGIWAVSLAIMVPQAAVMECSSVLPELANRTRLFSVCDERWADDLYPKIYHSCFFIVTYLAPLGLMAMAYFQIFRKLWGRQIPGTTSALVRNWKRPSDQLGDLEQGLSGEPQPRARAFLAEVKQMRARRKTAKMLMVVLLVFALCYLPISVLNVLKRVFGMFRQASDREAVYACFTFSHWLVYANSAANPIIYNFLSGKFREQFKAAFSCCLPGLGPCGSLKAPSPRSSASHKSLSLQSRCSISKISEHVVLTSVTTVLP

[7] = target: T3, Orexin/Hypocretin receptor type 1; test: Fluorescence-based cell-based high throughput dose response assay for antagonists of the orexin 1 receptor (OX1R; HCRTR1). [Related pubchem assays (depositor defined):AID434989, AID435008, AID463079, AID485270, AID492963, AID492964, AID492965, AID493232, AID504717, AID504718]; assay type: functional
[8] = system: CHO-K1; test: Counterscreen for antagonists of the orexin 1 receptor (OX1R; HCRTR1): Homogeneous time resolved fluorescence (HTRF)-based cell-based dose response assay to identify antagonists of the parental CHO-K1 cell line. [Related pubchem assays (depositor defined):AID434989, AID435008, AID463079, AID485270, AID492963, AID492964, AID492965, AID493232, AID504699, AID504701]; assay type: functional; details: Cricetulus griseus;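 also: potency for inhibition of ATP-stimulated IP1 production as antagonists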
[9] = Counterscreen for antagonists of the orexin 1 receptor (OX1R; HCRTR1): Fluorescence-based cell-based high throughput dose response assay to identify antagonists of the parental CHO cell line. [Related pubchem assays (depositor defined):AID434989, AID435008, AID463079, AID485270, AID492963, AID492964, AID492965, AID493232, AID504699, AID504701]; assay type: functional
[10] = system: HEK293; test: inhibitors of LMP1-driven NF-kB reporter, dose response, cell-based, HEK293, luciferase, cherry-pick (AID 588343); assay type: functional; details: Homo sapiens
[11] = MC4R antagonists, dose response, counter-screen for LGR2 antagonist project, cell-based, plate reader, cherry pick (AID 743444); assay type: functional;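 also: transfected HEK 293 cells stimulated with alpha-MSH peptide; potency of inhibitors of the alpha-MSH evoked signal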
[12] = ARNT/TACC3 interaction disruptors, potency, confirmation, biochemical, AlphaScreen, cherry-picked samples (AID 651703); assay type: functional, Homo sapiens;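 also: His-tagged ARNT PAS-B domain paired with GST-TACC3 E629A dimer coactivator fragment; potency of inhibitors that break up the complex and lower AlphaScreen signal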
[13] = LGR2 antagonists, dose response, cell-based, HEK293, CRE-luciferase reporter, cherry pick, set 2 (AID 743343); assay type: functional;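 also: transfected cells were stimulated with diluted bursicon conditioned medium after compound addition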
[14] = A549 cell cytotoxicity, dose response, cytotoxicity control, plate reader, cherry-pick, antagonist series (AID 743412); assay type: functional, cell-based
[15] = HepG2 cell cytotoxicity, dose response, cytotoxicity control, plate reader, cherry-pick, antagonist series (AID 743416); assay type: functional, cell-based
[16] = Luminescence Cell-Based Dose Confirmation HTS to Identify Inhibitors of Platelet Dense Granule Release. [Related pubchem assays: 1663 (Primary HTS), 1678 (Summary of Project)]; assay type: functional
[17] = target: Luciferin 4-monooxygenase (Photinus pyralis, UniProt P08659); test: firefly luciferase enzyme inhibitors, dose response, biochemical, luminescence (AID 1891)
[18] = HEK293 cell cytotoxicity, dose response, cytotoxicity control, plate reader, cherry-picked samples (AID 743446); assay type: functional, cell-based
[19] = Luminescence Cell-Based Dose Response HTS to Identify Inhibitors of 5'UTR Stem-Loop Driven Prion Protein mRNA Translation in H4 Neuroglioblastoma Cells. [Related pubchem assays: 1827 (Project Summary), 1813 (Primary HTS)]; assay type: functional
[20] = target: Cytochrome P450 2C9 (Homo sapiens, UniProt P11712)
[21] = inhibitors of SNCA 5'UTR-driven reporter translation, confirmation, H4 neuroglioma cells, luminescence (AID 1988); assay type: functional, cell-based
[22] = target: Cytochrome P450 2C19 (Homo sapiens, UniProt P33261); test: Cytochrome panel assay with activity outcomes. Panel member name: p450-cyp2c19 Compounds with AC50 equal or less than 10 uM are considered active; assay type: functional; details: read-out: AC50
[23] = miR-122 activators in hepatoma reporter cells, dose response, cell-based, Huh7 psiCHECK-miR122, Renilla luciferase, cherry-picked (AID 651956); assay type: functional;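 also: huh7 hepatoma cells stably carrying a psiCHECK-2 miR-122 sensor plasmid; renilla luciferase signal reporting endogenous miR-122 activity after 48 h compound exposure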
[24] = inhibitors of firefly luciferase expression or activity, dose response, H4 neuroglioma cells, luminescence (AID 1990); assay type: functional, cell-based
[25] = target: T4, Type-1 angiotensin II receptor (Homo sapiens, UniProt P30556); test: AT1 receptor antagonists, dose response, selectivity assay for APJ receptor antagonist project, cell-based, uHTS hits (AID 463214); assay type: functional;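 also: antagonist potency against angiotensin II stimulated AT1 response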
T4 sequence (P30556 whole entry): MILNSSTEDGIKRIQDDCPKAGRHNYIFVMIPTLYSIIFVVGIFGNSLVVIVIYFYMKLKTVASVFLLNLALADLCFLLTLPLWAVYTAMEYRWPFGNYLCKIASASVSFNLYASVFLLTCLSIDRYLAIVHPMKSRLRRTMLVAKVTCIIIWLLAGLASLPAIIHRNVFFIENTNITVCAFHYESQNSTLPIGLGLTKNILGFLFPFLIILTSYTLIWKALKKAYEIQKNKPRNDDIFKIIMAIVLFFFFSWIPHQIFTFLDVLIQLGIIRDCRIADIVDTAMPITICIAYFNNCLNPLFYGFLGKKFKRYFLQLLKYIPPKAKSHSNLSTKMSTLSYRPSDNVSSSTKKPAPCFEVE

[26] = target: Beta-galactosidase (Escherichia coli, UniProt Q8VNN2); test: PubChem AID 485352; assay type: functional
[27] = target: T5, Apoptotic protease-activating factor 1 (Homo sapiens, UniProt O14727); test: SAR analysis of small molecule Activators of Apaf-1 in a Fluorescent assay.; assay type: functional; details: read-out: EC50_Mean;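 also: caspase-3 cleavage of fluorogenic Rh110 DEVD substrate downstream of apoptosome activation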
T5 sequence (O14727 whole entry): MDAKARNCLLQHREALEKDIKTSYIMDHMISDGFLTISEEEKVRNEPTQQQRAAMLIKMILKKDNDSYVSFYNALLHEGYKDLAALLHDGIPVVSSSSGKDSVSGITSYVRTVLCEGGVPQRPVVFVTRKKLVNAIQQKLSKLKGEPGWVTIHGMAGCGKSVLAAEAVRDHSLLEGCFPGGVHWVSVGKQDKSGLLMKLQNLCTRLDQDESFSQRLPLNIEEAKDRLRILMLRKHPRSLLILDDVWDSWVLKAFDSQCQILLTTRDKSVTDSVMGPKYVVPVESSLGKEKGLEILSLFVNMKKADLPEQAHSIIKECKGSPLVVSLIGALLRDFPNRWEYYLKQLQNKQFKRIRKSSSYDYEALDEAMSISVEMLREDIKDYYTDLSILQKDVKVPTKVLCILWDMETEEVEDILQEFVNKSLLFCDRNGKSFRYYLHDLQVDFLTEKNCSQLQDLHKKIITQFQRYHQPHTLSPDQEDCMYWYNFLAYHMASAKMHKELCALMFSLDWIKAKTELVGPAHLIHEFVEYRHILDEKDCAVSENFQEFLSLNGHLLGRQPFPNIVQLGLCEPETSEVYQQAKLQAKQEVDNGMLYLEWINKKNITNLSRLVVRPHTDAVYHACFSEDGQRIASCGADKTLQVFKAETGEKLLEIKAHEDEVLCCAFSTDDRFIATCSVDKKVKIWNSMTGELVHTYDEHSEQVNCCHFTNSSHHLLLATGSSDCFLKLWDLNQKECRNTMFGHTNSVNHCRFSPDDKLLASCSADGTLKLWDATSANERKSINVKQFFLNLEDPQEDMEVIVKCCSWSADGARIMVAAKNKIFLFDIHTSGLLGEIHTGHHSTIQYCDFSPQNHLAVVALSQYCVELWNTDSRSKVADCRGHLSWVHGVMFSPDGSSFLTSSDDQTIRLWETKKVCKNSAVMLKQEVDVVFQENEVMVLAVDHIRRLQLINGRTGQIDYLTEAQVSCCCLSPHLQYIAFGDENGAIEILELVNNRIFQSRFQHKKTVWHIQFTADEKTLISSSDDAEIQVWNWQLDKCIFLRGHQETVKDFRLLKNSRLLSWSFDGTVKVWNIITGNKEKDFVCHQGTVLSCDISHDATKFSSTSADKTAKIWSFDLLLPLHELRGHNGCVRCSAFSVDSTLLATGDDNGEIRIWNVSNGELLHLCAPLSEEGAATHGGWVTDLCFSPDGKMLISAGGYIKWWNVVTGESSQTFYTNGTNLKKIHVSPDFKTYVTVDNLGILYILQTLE

Chain of Ras and Rab interactor 1/Tyrosine-protein kinase ABL1 (P00519 whole entry): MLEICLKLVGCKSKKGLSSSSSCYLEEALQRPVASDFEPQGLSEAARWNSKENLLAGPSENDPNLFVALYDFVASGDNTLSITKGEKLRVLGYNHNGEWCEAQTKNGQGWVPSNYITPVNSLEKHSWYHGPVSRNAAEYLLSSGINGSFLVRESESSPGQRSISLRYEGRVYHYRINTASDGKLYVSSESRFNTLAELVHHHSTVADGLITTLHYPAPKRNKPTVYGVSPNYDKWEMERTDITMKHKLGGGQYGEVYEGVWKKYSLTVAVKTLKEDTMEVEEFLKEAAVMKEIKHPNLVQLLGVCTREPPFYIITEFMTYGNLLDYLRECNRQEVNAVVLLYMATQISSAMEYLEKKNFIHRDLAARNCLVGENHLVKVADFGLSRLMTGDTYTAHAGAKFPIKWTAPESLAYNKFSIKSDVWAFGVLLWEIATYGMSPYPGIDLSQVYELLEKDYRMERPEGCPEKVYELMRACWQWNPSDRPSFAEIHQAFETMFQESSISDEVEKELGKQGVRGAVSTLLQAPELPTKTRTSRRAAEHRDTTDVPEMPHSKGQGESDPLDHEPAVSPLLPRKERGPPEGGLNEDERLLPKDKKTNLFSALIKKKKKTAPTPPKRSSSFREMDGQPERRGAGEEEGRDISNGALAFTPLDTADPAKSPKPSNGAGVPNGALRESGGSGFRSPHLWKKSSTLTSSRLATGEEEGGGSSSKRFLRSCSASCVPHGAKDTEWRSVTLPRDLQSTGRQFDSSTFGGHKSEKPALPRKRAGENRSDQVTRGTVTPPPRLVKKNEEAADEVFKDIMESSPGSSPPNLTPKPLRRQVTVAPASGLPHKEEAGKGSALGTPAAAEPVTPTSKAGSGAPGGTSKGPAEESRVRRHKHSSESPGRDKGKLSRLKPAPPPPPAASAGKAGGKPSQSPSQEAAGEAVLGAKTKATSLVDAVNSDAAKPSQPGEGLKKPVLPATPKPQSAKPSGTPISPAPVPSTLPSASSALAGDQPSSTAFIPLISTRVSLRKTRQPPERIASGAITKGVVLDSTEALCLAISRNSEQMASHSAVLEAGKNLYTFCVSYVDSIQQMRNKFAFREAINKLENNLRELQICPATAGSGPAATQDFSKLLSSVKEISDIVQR
Chain of Ras and Rab interactor 1/Tyrosine-protein kinase ABL1 (Q13671 whole entry): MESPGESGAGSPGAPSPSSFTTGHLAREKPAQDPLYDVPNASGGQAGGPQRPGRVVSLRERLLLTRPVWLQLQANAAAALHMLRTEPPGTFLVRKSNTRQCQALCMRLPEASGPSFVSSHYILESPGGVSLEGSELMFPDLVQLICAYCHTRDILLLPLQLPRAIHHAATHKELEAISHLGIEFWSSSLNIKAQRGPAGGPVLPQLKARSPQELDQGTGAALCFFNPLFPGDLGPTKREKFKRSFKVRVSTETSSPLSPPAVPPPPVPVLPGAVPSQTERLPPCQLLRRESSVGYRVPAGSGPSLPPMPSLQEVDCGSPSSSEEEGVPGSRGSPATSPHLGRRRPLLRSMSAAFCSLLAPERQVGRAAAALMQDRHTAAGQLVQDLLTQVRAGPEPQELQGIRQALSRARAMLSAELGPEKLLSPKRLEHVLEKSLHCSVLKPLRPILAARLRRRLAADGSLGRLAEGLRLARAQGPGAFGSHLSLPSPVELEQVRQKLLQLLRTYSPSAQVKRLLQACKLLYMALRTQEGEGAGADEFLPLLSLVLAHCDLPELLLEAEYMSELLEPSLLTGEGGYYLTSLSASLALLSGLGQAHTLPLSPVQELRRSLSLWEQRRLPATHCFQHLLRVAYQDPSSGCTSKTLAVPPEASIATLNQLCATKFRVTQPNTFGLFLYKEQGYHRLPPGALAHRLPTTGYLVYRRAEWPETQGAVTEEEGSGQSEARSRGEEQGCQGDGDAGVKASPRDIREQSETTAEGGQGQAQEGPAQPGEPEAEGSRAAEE
Chain of Luciferin 4-monooxygenase (P08659 whole entry): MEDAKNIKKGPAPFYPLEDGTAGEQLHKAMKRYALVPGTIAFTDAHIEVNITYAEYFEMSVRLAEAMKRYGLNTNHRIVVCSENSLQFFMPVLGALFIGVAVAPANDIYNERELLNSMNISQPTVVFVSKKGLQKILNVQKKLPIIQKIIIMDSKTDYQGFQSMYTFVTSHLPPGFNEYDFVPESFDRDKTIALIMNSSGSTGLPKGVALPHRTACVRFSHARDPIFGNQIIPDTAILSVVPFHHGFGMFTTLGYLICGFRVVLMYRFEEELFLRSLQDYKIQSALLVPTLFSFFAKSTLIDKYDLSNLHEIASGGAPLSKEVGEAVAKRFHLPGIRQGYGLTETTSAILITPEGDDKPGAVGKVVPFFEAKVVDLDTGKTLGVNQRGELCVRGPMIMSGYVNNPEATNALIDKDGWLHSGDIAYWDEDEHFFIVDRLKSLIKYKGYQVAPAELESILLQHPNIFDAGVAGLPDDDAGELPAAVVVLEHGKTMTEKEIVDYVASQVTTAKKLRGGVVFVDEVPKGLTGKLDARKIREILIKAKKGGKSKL
Chain of Large T antigen (P03070 whole entry): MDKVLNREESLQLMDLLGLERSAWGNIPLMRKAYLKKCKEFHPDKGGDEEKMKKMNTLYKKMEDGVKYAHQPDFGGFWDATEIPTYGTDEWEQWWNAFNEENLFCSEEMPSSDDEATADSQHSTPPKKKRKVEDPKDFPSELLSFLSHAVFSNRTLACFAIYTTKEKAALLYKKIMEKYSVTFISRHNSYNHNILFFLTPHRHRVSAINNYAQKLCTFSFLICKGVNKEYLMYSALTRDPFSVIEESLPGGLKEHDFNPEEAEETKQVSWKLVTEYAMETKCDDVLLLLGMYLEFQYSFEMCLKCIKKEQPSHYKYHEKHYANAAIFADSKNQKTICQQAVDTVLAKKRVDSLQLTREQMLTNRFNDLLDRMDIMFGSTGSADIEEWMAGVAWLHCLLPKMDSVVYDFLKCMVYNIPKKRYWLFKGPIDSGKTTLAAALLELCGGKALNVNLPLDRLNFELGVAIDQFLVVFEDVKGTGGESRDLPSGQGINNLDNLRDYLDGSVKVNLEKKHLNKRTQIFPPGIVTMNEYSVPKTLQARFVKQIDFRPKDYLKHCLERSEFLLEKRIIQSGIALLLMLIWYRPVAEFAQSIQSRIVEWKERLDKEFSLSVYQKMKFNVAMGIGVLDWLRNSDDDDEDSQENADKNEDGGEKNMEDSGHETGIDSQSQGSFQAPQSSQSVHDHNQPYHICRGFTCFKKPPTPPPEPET
Chain of Beta-galactosidase (Q8VNN2 whole entry): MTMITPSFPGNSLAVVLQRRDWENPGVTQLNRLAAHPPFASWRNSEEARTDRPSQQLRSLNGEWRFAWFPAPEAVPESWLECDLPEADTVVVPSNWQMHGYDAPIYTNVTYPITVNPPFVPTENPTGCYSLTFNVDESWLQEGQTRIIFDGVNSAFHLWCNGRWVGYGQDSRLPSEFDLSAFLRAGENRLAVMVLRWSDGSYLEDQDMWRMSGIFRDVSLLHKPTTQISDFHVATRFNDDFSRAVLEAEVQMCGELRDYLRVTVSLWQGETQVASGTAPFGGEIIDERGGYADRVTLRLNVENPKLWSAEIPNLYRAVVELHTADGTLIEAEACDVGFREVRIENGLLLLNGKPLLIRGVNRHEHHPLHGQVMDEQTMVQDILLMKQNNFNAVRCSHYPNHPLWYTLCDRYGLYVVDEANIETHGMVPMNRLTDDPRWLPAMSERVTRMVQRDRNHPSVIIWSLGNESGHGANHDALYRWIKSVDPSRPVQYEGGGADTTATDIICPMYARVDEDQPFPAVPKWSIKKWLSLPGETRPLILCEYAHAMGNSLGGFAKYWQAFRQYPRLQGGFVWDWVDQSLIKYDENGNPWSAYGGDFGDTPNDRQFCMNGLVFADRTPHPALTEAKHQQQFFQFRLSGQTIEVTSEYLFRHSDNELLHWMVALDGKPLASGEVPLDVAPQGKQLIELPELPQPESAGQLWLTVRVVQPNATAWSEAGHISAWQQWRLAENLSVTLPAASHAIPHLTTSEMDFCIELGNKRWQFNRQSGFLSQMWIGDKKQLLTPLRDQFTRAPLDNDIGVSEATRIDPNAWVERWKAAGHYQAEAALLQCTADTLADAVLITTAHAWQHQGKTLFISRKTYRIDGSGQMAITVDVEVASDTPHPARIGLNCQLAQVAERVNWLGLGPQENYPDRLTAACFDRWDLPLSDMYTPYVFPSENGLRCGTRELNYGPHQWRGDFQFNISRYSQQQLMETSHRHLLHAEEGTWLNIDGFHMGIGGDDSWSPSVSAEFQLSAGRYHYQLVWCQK
Chain of Cytochrome P450 2C9 (P11712 whole entry): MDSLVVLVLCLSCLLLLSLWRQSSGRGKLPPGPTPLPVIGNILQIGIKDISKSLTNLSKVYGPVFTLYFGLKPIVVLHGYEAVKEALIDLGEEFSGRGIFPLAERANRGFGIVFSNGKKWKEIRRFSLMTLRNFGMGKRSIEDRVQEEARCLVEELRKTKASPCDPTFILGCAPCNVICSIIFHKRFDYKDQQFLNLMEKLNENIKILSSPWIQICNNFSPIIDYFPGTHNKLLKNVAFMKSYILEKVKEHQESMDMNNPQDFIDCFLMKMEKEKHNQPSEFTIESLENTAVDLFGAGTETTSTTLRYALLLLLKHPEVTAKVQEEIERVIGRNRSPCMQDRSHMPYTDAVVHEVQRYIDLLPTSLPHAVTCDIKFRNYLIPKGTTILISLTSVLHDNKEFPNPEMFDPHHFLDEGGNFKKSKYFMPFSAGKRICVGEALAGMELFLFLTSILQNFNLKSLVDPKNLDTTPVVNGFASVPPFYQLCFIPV

CC(C)n1cc(CN2CCC(C(=O)Nc3cccc(-c4cscn4)c3)CC2)cn1
IC50 [1]: 54.5 µM (inactive)

COCCCn1c(=O)c2ccccc2n2c(S)nnc12
EC50 [2]: > 104 µM (inactive)
IC50 [3]: 9.15 µM (active)

CN(C)/C=C1/Oc2c(ccc3ccccc23)C1=O
IC50 [4]: > 88.8 µM (inactive)
IC50 [5]: 18.3 µM (inactive)
IC50 [6]: 2.06 µM (active)
IC50 [7]: 33.3 µM (inactive)
IC50 [8]: > 66.2 µM (inactive)
IC50 [9]: > 49.7 µM (inactive)

Cc1ccc2[nH]c(-c3ccccn3)nc2c1
AC50 [10]: 3.34 µM (active)
AC50 [11]: 6.67 µM (active)
AC50 [12]: 76 µM (active)
AC50 [13]: 5.45 µM (active)
AC50 [14]: 27.3 µM (active)
AC50 [15]: 34.3 µM (active)
EC50 [16]: 14.7 µM (active)
EC50 [17]: 2.78 µM (active)
AC50 [18]: > 52 µM (inactive)

CN(C)CCNc1ncnc2c1sc1nc(N3CCOCC3)c3c(c12)CC(C)(C)SC3
EC50 [19]: 23.9 µM (active)
AC50 [20]: 25.1 µM (inconclusive)
EC50 [21]: 8.17 µM (active)
AC50 [22]: 31.6 µM (inconclusive)
IC50 [1]: 13.7 µM (inactive)
AC50 [23]: 12.9 µM (active)
EC50 [24]: 8.43 µM (active)

CN(/N=C/c1cc([N+](=O)[O-])ccc1O)c1ccccc1
IC50 [4]: > 88.8 µM (inactive)
IC50 [25]: > 40 µM (not active)
IC50 [5]: > 50 µM (inactive)
EC50 [26]: > 40 µM (inactive)
IC50 [6]: 2.39 µM (active)
IC50 [7]: 2.48 µM (active)
IC50 [8]: > 66.2 µM (inactive)
IC50 [9]: > 49.7 µM (inactive)

O=C(O)c1coc(-c2ccc(Cl)cc2)n1
EC50 [27]: > 100 µM (inactive)

COC(=O)c1coc(-c2ccc(Cl)cc2)n1
EC50 [27]: > 100 µM (inactive)
